{"source": "PubChem BioAssay AID330", "about": "(DTP/NCI, 2004)", "test_system": "P388 leukemia ip, CD2F1 mice, survival T/C", "test": "NCI In Vivo Anticancer Drug Screen. Data for tumor model P388 Leukemia (intraperitoneal) in CD2F1 (CDF1) mice", "conditions": "endpoint: median survival time, higher = longer survival", "method_in_brief": "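Mice carrying the transplanted tumor received test compound or vehicle. Survival was recorded in each group, and the value is the treated-group measurement divided by that of the vehicle-treated control group.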", "key": {"[1]": {"conditions": "dose: 12.5 mg/kg/injection, schedule: Q01DX009 (ip), vehicle: saline"}, "[2]": {"conditions": "dose: 25.0 mg/kg/injection, schedule: Q01DX009 (ip), vehicle: saline"}, "[3]": {"conditions": "dose: 50.0 mg/kg/injection, schedule: Q01DX009 (ip), vehicle: saline"}, "[4]": {"conditions": "dose: 100.0 mg/kg/injection, schedule: Q01DX009 (ip), vehicle: saline"}, "[5]": {"conditions": "dose: 200.0 mg/kg/injection, schedule: Q01DX009 (ip), vehicle: saline"}}, "note": "Where “and” joins values, the source holds several entries; their conditions need not be identical. Equal values may be shown once. Toxic doses and inconclusive results are not listed."}
{"smiles": "N#CCCN/N=C\\c1ccc2c(c1)OCO2", "values": [{"measurement": "T/C", "setting": "dose: 100.0 mg/kg/injection, schedule: Q04DX003 (ip), vehicle: saline with Tween-80", "value": "102 % of control"}, {"measurement": "T/C", "setting": "dose: 200.0 mg/kg/injection, schedule: Q04DX003 (ip), vehicle: saline with Tween-80", "value": "96 % of control"}, {"measurement": "T/C", "setting": "dose: 400.0 mg/kg/injection, schedule: Q04DX003 (ip), vehicle: saline with Tween-80", "value": "92 % of control"}]}
{"smiles": "O=c1n(CC2CO2)c(=O)n(CC2CO2)c(=O)n1CC1CO1", "note": "(stereo not drawn)", "values": [{"measurement": "T/C", "setting": "dose: 6.25 mg/kg/injection, schedule: Q01DX009 (ip), vehicle: suspension in saline", "value": "203 % of control and 172 % of control"}, {"measurement": "T/C", "setting": "[1]", "value": "165 % of control and 186 % of control"}, {"measurement": "T/C", "setting": "dose: 12.5 mg/kg/injection, schedule: Q01DX009 (ip), vehicle: suspension in saline", "value": "197 % of control and 216 % of control"}, {"measurement": "T/C", "setting": "dose: 15.0 mg/kg/injection, schedule: Q01DX005 (ip), vehicle: saline with Tween-80", "value": "200 % of control"}, {"measurement": "T/C", "setting": "dose: 15.0 mg/kg/injection, schedule: Q01DX005 (ip), vehicle: saline", "value": "161 % of control"}, {"measurement": "T/C", "setting": "dose: 20.0 mg/kg/injection, schedule: Q01DX009 (ip), vehicle: saline", "value": "313 % of control"}, {"measurement": "T/C", "setting": "dose: 20.0 mg/kg/injection, schedule: Q01DX009 (sc), vehicle: saline", "value": "172 % of control and 220 % of control"}, {"measurement": "T/C", "setting": "[2]", "value": "167 % of control and 205 % of control"}, {"measurement": "T/C", "setting": "dose: 25.0 mg/kg/injection, schedule: Q01DX009 (ip), vehicle: suspension in saline", "value": "226 % of control and 281 % of control"}, {"measurement": "T/C", "setting": "dose: 25.0 mg/kg/injection, schedule: Q01DX009 (sc), vehicle: saline", "value": "157 % of control and 265 % of control"}, {"measurement": "T/C", "setting": "dose: 30.0 mg/kg/injection, schedule: Q01DX005 (ip), vehicle: saline", "value": "192 % of control"}, {"measurement": "T/C", "setting": "dose: 30.0 mg/kg/injection, schedule: Q01DX009 (ip), vehicle: saline", "value": "272 % of control and 290 % of control and 316 % of control"}, {"measurement": "T/C", "setting": "dose: 30.0 mg/kg/injection, schedule: Q01DX009 (sc), vehicle: saline", "value": "161 % of control and 247 % of control"}, {"measurement": "T/C", "setting": "dose: 40.0 mg/kg/injection, schedule: Q01DX009 (sc), vehicle: saline", "value": "277 % of control"}, {"measurement": "T/C", "setting": "dose: 40.0 mg/kg/injection, schedule: Q04DX003 (ip), vehicle: saline", "value": "184 % of control and 188 % of control and 218 % of control"}, {"measurement": "T/C", "setting": "[3]", "value": "200 % of control [middle of 5 runs]"}, {"measurement": "T/C", "setting": "dose: 50.0 mg/kg/injection, schedule: Q01DX009 (ip), vehicle: suspension in saline", "value": "100 % of control"}, {"measurement": "T/C", "setting": "dose: 50.0 mg/kg/injection, schedule: Q04DX003 (ip), vehicle: saline", "value": "206 % of control and 217 % of control and 290 % of control"}, {"measurement": "T/C", "setting": "dose: 60.0 mg/kg/injection, schedule: Q01DX001 (ip), vehicle: other", "value": "262 % of control and 271 % of control"}, {"measurement": "T/C", "setting": "dose: 60.0 mg/kg/injection, schedule: Q01DX001 (ip), vehicle: saline", "value": "271 % of control"}, {"measurement": "T/C", "setting": "dose: 60.0 mg/kg/injection, schedule: Q01DX001 (ip), vehicle: water", "value": "260 % of control"}, {"measurement": "T/C", "setting": "dose: 60.0 mg/kg/injection, schedule: Q04DX003 (ip), vehicle: saline", "value": "233 % of control and 245 % of control and 300 % of control"}, {"measurement": "T/C", "setting": "dose: 70.0 mg/kg/injection, schedule: Q01DX001 (ip), vehicle: other", "value": "231 % of control and 281 % of control"}, {"measurement": "T/C", "setting": "dose: 70.0 mg/kg/injection, schedule: Q01DX001 (ip), vehicle: saline", "value": "274 % of control"}, {"measurement": "T/C", "setting": "dose: 70.0 mg/kg/injection, schedule: Q01DX001 (ip), vehicle: water", "value": "184 % of control"}, {"measurement": "T/C", "setting": "dose: 80.0 mg/kg/injection, schedule: Q01DX001 (ip), vehicle: other", "value": "291 % of control and 349 % of control"}, {"measurement": "T/C", "setting": "dose: 80.0 mg/kg/injection, schedule: Q01DX001 (ip), vehicle: saline", "value": "291 % of control"}, {"measurement": "T/C", "setting": "dose: 80.0 mg/kg/injection, schedule: Q01DX001 (ip), vehicle: water", "value": "223 % of control"}, {"measurement": "T/C", "setting": "dose: 90.0 mg/kg/injection, schedule: Q01DX001 (ip), vehicle: saline", "value": "420 % of control"}, {"measurement": "T/C", "setting": "dose: 100.0 mg/kg/injection, schedule: Q01DX001 (ip), vehicle: saline", "value": "210 % of control"}, {"measurement": "T/C", "setting": "[4]", "value": "285 % of control and 156 % of control and 228 % of control"}, {"measurement": "T/C", "setting": "[5]", "value": "107 % of control"}]}
{"smiles": "CCOC(=O)CC1=NN=C(N)SC1", "values": [{"measurement": "T/C", "setting": "[1]", "value": "100 % of control"}, {"measurement": "T/C", "setting": "[2]", "value": "101 % of control and 103 % of control"}, {"measurement": "T/C", "setting": "[3]", "value": "101 % of control and 106 % of control"}, {"measurement": "T/C", "setting": "[4]", "value": "93 % of control and 97 % of control"}, {"measurement": "T/C", "setting": "[5]", "value": "87 % of control"}]}
{"smiles": "O=C1C(=O)c2cccnc2-c2ncccc21", "values": [{"measurement": "T/C", "setting": "dose: 1.56 mg/kg/injection, schedule: Q01DX005 (ip), vehicle: Klucel (hydroxypropylcellulose) (HPC)", "value": "115 % of control"}, {"measurement": "T/C", "setting": "dose: 3.12 mg/kg/injection, schedule: Q01DX005 (ip), vehicle: Klucel (hydroxypropylcellulose) (HPC)", "value": "106 % of control"}, {"measurement": "T/C", "setting": "dose: 6.25 mg/kg/injection, schedule: Q01DX005 (ip), vehicle: Klucel (hydroxypropylcellulose) (HPC)", "value": "115 % of control"}]}
